Consider 16 compounds from patent publication US20040157818A1, “Cxcr4-antagonistic drugs composed of nitrogen-containing compound” (priority 2001, published 2004).

Data set [1] addresses T1, CXCR4 (Homo sapiens, UniProt P61073).
T1 construct: endogenous in cells; host or cells: MT-4 cells
The data set can be described thus: CXCR4-binding inhibition activity (125I-SDF-1α binding to MT-4 cells). As to conditions: 0.1 μM test material, ligand 125I-SDF-1α, 2 hours under ice cold condition. The protocol:
CXCR4-Binding Inhibition Activity
MT-4 cells (5×10^6/0.2 ml/well) were cultured on a 24-well microtiter plate. After the cells were incubated for 24 hours at 37° C. in a carbon dioxide gas incubator, a culture mediumwas replaced with a buffer solution (RPMI-1640 containing 0.1% BSA). Together with a ligand ^125I-SDF-1α (specific activity: 2,2000 Ci/mmol; DAIICHI PURE CHEMICALS CO. ,LTD. (Tokyo)), various concentrations of test materials were subjected to a binding reaction for 2 hours under ice cold condition.

In data set [2] the test system is ICR mice. The data set can be described thus: Acute toxicity in ICR mice. The format is in vivo. As to conditions: 50 mg/kg intraperitoneally twice a day for 4 days; dead mice after 5 days; male ICR mice, three animals per group. The method, then:
The CXCR4-antagonist or the salt thereof of the present invention is intraperitoneally injected in to an ICR mouse ([…]) twice a day for 4 consecutive days, and no lethal case was found after 5 days. Therefore, the conclusion can be drawn that there is no acute toxicity.
7-week old ICR mice (male) (obtained from Charls River Japan Inc) were divided into three-animals for each groups. After domestication-breeding for 1 week, the compound of the coresponding Synthesis Example was dissolved in a physiological salt solution or distilled water and the solution was then intraperitoneally dosed twice a day for 4 days (50 mg/kg in dosage).

The test system of data set [3] is type-II collagen-induced arthritis mouse. Briefly: Drug efficacy test on type-II collagen-induced arthritis (CIA) mouse. The format is in vivo. The method, then: Drug Efficacy Test of the Compound No. 86 on Type-II Collagen-Induced Arthritis Mouse
Using the type-II collagen-induced mouse arthritis (CIA) model, which was a model of articular rheumatism (RA), the compound No. 86 was tested for drug efficacy.
24 of 6-week-oldmale DBA/l mice (obtained from Charles River Japan, Inc.) were used as test animal and were divided in groups of 12 animals, that is, a test group of and a control group, such that the average weights of the respective groups were almost equal to each other.
An initial-sensitizing antigen solution used was a liquid of adjusted emulsion prepared by dissolving chicken type-II collagen (obtained from Collagen Gijyutu Kensyuukai) in 0.01N acetic acid (4mg/mL) andthenmixingwith an equal amount of Freund's complete adjuvant (manufactured by Difco BRL), and an additional-sensitizing antigen solution used was a liquid of emulsion prepared by dissolving chicken type-II collagen in 0.01N acetic acid (8 mg/mL), and then mixing with an equal amount of Freund's complete adjuvant.
An initial sensitization was performed by endodermic injection of 50 μl of the initial-sensitizing antigen solution (containing 100 μg of chicken type-II collagen) into the tail of the mouse. The additional sensitization was performed after 21 days from the initial sensitization by endodermic injection of 50 μl of the additional-sensitizing antigen solution (containing 200 μg of chicken type-II collagen) into the tail of the mouse.
The compound No. 86, which was provided as a test material, was provided as one at a concentration of 5 mg/mL prepared by dissolving ditartrate thereof in a physiological saline solution. The test material was administered such that the test material was interperitoneally administered once a day for consecutive 17 days from 2 days before the additional sensitization (an amount of administered liquid was 10 mL/kg). In addition, for the control group, the test material was administered by dissolving ditartrate in a physiological saline solution so as to make the concentration of tartaric acid of 1.7 mg/mL because a dosage solvent is ditartrate for the test material compound No. 86.
Amacroscopic observation on extremities after the additional sensitization was performed once a day. A scoring of the macroscopic observation was according to the following criteria and judged on each of extremities with respect to edema of foot. The total of the scores of extremities was provided as an index of the onset of symptoms and pharmacometrics with respect to arthritis. In addition, the total of the numbers of fingers of each extremity on which edema was observed was also used as an index of pharmacometrics.
In addition, the scores in FIG. 6 were defined as follows: […]

T1 sequence (P61073 whole entry): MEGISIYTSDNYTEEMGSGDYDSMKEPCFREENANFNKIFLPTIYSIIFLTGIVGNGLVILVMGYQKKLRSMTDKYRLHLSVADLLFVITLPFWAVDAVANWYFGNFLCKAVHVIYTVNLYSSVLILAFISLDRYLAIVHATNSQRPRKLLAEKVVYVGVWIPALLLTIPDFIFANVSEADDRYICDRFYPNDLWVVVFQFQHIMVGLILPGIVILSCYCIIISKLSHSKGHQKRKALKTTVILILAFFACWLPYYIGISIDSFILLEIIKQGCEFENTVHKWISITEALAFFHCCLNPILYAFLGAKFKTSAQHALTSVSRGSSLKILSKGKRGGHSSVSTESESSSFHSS

In the case of `C[C@H](NC(=O)[C@H](CCCNC(=N)N)NC(=O)c1ccc(CNCc2ncc[nH]2)c2ccccc12)c1cccc2ccccc12` [Compound No. 49, N^α-(4-(imidazol-2-ylmethyl)aminomethylnaphthoyl)-L-arginine (1′S)-(1′-(1-naphthyl)ethyl)amide], the “inhibition rate (binding-inhibition % at 0.1 μM)” value in data set [1] was found to be 97.8%. Further, the “Number of dead mice” value in data set [2] is 0/3.
For `O=C(N[C@@H](CCCNC1CCCc2cccnc21)C(=O)NCc1cccc2ccccc12)c1ccc(CNCc2ccccn2)cc1` (stereo partly drawn) [Compound No. 65, (2S)-2-(4-(N-2-picolylaminomethyl)benzoylamino)-5-((5,6,7,8-tetrahydroquinolin-8-yl)amino)valerate 1-naphthalenemethylamide], in that order: 75.1% and 0/3.
Take `C[C@H](NC(=O)[C@H](CCCNC1CCCc2cccnc21)NC(=O)c1ccc(CNCc2ncc[nH]2)c2ccccc12)c1cccc2ccccc12` (stereo partly drawn) [Compound No. 57]: the “inhibition rate (binding-inhibition % at 0.1 μM)” value in data set [1] is listed as 97.8%. For the same compound, in data set [2], the “Number of dead mice” value is given as 0/3.
Turning to `O=C(N[C@@H](CCCNC1CCCc2cccnc21)C(=O)NCc1cccc2ccccc12)c1ccc(CNCc2ncc[nH]2)cc1` (stereo partly drawn) [Compound No. 39, (2S)-2-(4-((N-imidazol-2-ylmethyl)aminomethyl)benzoylamino)-5-(5,6,7,8-tetrahydroquinolin-8-ylamino)valerate 1-naphthalenemethylamide], in data set [2], the “Number of dead mice” value was 0/3.
Take `C[C@H](NC(=O)[C@H](CCCNC1CCCc2cccnc21)NC(=O)c1ccc(CNCc2ncc[nH]2)cc1)c1cccc2ccccc12` (stereo partly drawn) [Compound No. 106]: the “inhibition rate (binding-inhibition % at 0.1 μM)” value in data set [1] came to 100.0%. The “Number of dead mice” value in data set [2] was 0/3.
For `C[C@H](NC(=O)[C@H](CCCNC(=N)N)NC(=O)c1ccc(CNCc2ccccn2)c2ccccc12)c1cccc2ccccc12` [Compound No. 99, N^α-(4-(N-2-picolylaminomethyl)naphthoyl)-L-arginine(1′S)-1′-(1-naphthyl)ethylamide], in that order: 76.4% and 0/3.
For `C[C@H](NC(=O)[C@H](CCCNC1CCCc2cccnc21)NC(=O)c1ccc(CNCc2nccn2C)cc1)c1cccc2ccccc12` (stereo partly drawn) [Compound No. 107], in that order: 96.5% and 0/3.
For `O=C(N[C@@H](CCCNC1CCCc2cccnc21)C(=O)NCc1cccc2ccccc12)c1ccc(CNCc2ncc[nH]2)c2ccccc12` (stereo partly drawn) [Compound No. 41, (2S)-2-(4-((N-imidazol-2-ylmethyl)aminomethyl)naphthoylamino)-5-(5,6,7,8-tetrahydroquinolin-8-ylamino)valerate 1-naphthalenemethylamide], in that order: 97.9% and 0/3.
For the compound `C[C@H](NC(=O)[C@H](CCCN=C(N)N)NC(=O)c1ccc(CNCc2ccccn2)cc1)c1cccc2ccccc12` [Compound No. 86, N^α-(4-(N-2-picolylaminomethyl)benzoyl)-L-arginine(1′S)-1′-(1-naphthyl)ethylamide], in data set [1], the “inhibition rate (binding-inhibition % at 0.1 μM)” value is reported as 91.4%. For the same compound, in data set [2], the “Number of dead mice” value is reported as 0/3. The “lesion score of extremities (arthritis score)” value in data set [3] (5 mg/mL, 10 mL/kg intraperitoneally once a day for 17 days from 2 days before additional sensitization, observed 12 days after additional sensitization, vs control group) was “tended to inhibit a chronological increase”. In addition, the “change in animal body weights” value in data set [3] (5 mg/mL, 10 mL/kg intraperitoneally once a day for 17 days, CIA mice) was “no influence was found”. Also, the “number of edematous fingers (chronological increase)” value in data set [3] (5 mg/mL, 10 mL/kg intraperitoneally once a day for 17 days, observed 12 days after additional sensitization, vs control group) is reported as “tended to inhibit a chronological increase”. The “increase in number of edematous fingers” value in data set [3] (after 12 days from the additional sensitization, vs control group) is reported as “significantly inhibited”.
Regarding `O=C(N[C@@H](CCCNC1CCCc2cccnc21)C(=O)NCCc1c[nH]c2ccccc12)c1ccc(CNCc2ccccn2)c2ccccc12` (stereo partly drawn) [Compound No. 92, (2S)-2-(4-(N-2-picolylaminomethyl)naphthoyl)amino-5-(5,6,7,8-tetrahydroquinolin-8-yl)amino valerate 2-(3-indolyl)ethylamide], the “Number of dead mice” value in data set [2] is reported as 0/3.
`N=C(N)NCCC[C@H](NC(=O)c1ccc(CNCc2ncc[nH]2)cc1)C(=O)NCc1cccc2ccccc12` [Compound No. 53, N^α-(4-((imidazol-2-ylmethyl)aminomethyl)benzoyl)-L-arginine 1-naphthalenemethylamide]: the “inhibition rate (binding-inhibition % at 0.1 μM)” value in data set [1] is on record as 71.5%.
For `C[C@H](NC(=O)[C@H](CCCNC(=N)N)NC(=O)c1ccc(CNCc2nccn2C)c2ccccc12)c1cccc2ccccc12` [Compound No. 97, N^α-(4-((N-(1-methylimidazol-2-ylmethyl)amino)methyl)naphthalene-1-carbonyl)-L-arginine(1′S)-1′-(1-naphthyl)ethylamide], in data set [1], the “inhibition rate (binding-inhibition % at 0.1 μM)” value was determined as 100.0%. Further, the “Number of dead mice” value in data set [2] was 0/3.
On to `O=C(N[C@@H](CCCNC1CCCc2cccnc21)C(=O)NCc1cccc2ccccc12)c1ccc(CNCc2ncc[nH]2)s1` (stereo partly drawn) [Compound No. 16], for which the “inhibition rate (binding-inhibition % at 0.1 μM)” value in data set [1] was 75.3%.
Take `O=C(N[C@@H](CCCN[C@@H]1CCCc2cccnc21)C(=O)NCc1cccc2ccccc12)c1ccc(CNCc2ccccn2)c2ccccc12` [Compound No. 55, (2S)-2-(4-(N-2-picolylaminomethyl)naphthoylamino)-5-((8R)-5,6,7,8-tetrahydroquinolin-8-ylamino)valerate 1-naphthalenemethylamide]: the “inhibition rate (binding-inhibition % at 0.1 μM)” value in data set [1] is on record as 94.6%.
For `O=C(N[C@@H](CCCNC1CCCc2cccnc21)C(=O)NCc1cccc2ccccc12)c1ccc(CNCc2ccccn2)c2ccccc12` (stereo partly drawn) [Compound No. 38, (2S)-2-(4-(N-2-picolylaminomethyl)naphthoylamino)-5-(5,6,7,8-tetrahydroquinolin-8-ylamino)valerate 1-naphthalenemethylamide], the “inhibition rate (binding-inhibition % at 0.1 μM)” value in data set [1] was 90.0%.
As to `Cn1ccnc1CNCc1ccc(C(=O)N[C@@H](CCCNC2CCCc3cccnc32)C(=O)NCc2cccc3ccccc23)cc1` (stereo partly drawn) [Compound No. 96, (2S)-2-((1-methylimidazol-2-ylmethyl)aminomethyl) benzoylamino-5-(5,6,7,8-tetrahydroquinolyl-8-yl)amino valerate 1-naphthalene methyleneamide], the “inhibition rate (binding-inhibition % at 0.1 μM)” value in data set [1] was found to be 96.8%. Further, the “Number of dead mice” value in data set [2] is 0/3.
